Data on one substance can be found in US8207154B2, “Catatonic bacteriochlorophyll derivatives” (Yeda Research and Development Co., Ltd., priority 2005, dated 2012).

Data set [1] deals with H5V mouse endothelial cells. Description: Phototoxicity (cytophototoxicity) on endothelial cells, Neutral Red viability. Type of data set: cell-based. Conditions: endothelial cell cultures, FIG. 3C. As for the experimental part: (i) Cell culture. H5V mouse endothelial cells were cultured as monolayers in Dulbecco's modified Eagle's medium (DMEM)/F12 containing 25 mM HEPES, pH 7.4, 10% fetal calf serum (FCS), glutamine (2 mM), penicillin (0.06 mg/ml), and streptomycin (0.1 mg/ml) (hereinafter referred to as the “culture medium”). The cells were grown at 37° C. in an 8% CO2-humidified atmosphere.
(a) Cells. To determine the photodynamic efficacy, cells were cultured in 96-well plates (40×10^3/well) and incubated in the dark in culture medium containing increasing concentrations of sensitizers 5, 7, 9 and 11, for a period of 1 min to 8 h. Unbound sensitizer was removed by washing the cells once with fresh culture medium. The plates were illuminated at room temperature, from their bottom side, for 10 min (650<λ<800 nm, 12 J/cm^2). The light source was a 100 W Halogen lamp (Osram, Germany) equipped with a <650 nm cutoff and a 4-cm water filter. The cultures were placed in the culture incubator and cell survival was determined 24 h after illumination, by Neutral Red viability assay. Cell survival was calculated as the percent of the dye accumulated in the untreated controls. Triplicate determinations were conducted and representative experiments are shown. […]
The phototoxicity of compounds 5, 7, 9, and 11 on H5V mouse endothelial cells was determined as described in section (iv) (a) above. […]

The target in data set [2] is human serum albumin (HSA) (Homo sapiens, UniProt P02768). Description: Interaction with human serum albumin (aggregation state, spectrophotometric). In kind it is binding. As to conditions: in PBS, 3.2×10^−4 M, 0.1-5 mg HSA. The method, then:
A solution of 5 in PBS (3.2×10^−4 M, 100 μl) was mixed with various amounts of human serum albumin (0.1, 0.5, 1, 2, and 5 mg). Aggregation, at high concentrations of 5 in aqueous solutions, is reflected by splitting of the original monomeric peak at 747 nm into two new peaks at 720 and 760 nm. The state of aggregation was followed spectrophotometrically over the range of albumin concentrations at room temperature in a 0.1 mm cuvette. The absorbance intensity values at the peak wavelengths were taken as an indication of the aggregation.
Addition of the albumin caused disaggregation of the sensitizer 5 in PBS (FIG. 2). The absorption spectra of the solutions containing increasing amounts of albumin resembled the spectrum of the monomeric pigment 5 in methanol.

Data set [3] can be described thus: Octanol/water partition ratio. Type of data set: physicochemical. The text has this:
Optical absorption in water, λ (relative absorption): 753 (1.00), 519 (0.30), 354 (1.25) nm. Octanol/water partition ratio is 40/60. ESI-MS (+): 413.62 ([M-2×citrate]/2). Octanol/water partition ratio is 50/50. ESI-MS (+): 455.89 ([M-2×citrate]/2). Octanol/water partition ratio is 75/25.

Chain of human serum albumin (HSA) (P02768 25-609): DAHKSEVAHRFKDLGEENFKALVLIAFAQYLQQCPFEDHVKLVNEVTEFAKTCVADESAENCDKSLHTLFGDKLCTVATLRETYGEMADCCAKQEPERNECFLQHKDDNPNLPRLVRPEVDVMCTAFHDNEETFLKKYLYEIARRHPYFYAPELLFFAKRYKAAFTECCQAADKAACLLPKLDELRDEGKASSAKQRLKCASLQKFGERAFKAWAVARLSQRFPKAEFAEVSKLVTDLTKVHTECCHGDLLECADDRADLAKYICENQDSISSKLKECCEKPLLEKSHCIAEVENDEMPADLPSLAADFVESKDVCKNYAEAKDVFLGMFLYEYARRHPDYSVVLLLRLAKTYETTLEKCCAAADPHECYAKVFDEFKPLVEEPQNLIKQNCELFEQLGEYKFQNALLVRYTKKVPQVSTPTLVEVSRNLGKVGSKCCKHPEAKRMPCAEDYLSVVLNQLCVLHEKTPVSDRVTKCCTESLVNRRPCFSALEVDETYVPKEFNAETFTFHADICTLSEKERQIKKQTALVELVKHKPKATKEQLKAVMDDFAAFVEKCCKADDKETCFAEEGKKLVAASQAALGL

In the case of “3^1-Oxo-15-methoxycarbonylmethyl-Rhodo-bacteriochlorin 13^1,17^3-di(2-N^3-trimethylammoniumethyl)amide dicitrate salt [Compound 5]”, the “incubation time at which very high PDT efficiency is reached” value in data set [1] is given as “less than 5 minutes”. Further, the “aggregation state on addition of albumin” value in data set [2] is reported as “disaggregation”. For the same substance, the Octanol/water partition ratio is reported as 40/60 in data set [3] (dicitrate salt) and 75/25 in data set [3] (listed as 2, dicitrate salt).
